# Measured values taken from article PMC5433425 (PeerJ, 2017).
# Several values for one entry are separate records, joined by “and”; a condition that tells them apart may be missing. Equal values may be shown once. Peptide text beside a SMILES is read from it. * marks the point of attachment. βNA = c1ccc2cc(N*)ccc2c1
# How the values were obtained:
# E. coli AG100 [1] = test: Membrane permeability assay (Live/Dead BacLight)
# E. coli AG100 [2] = test: Membrane potential assay (BacLight, DiOC2(3)); settings: 80 µM
# E. coli AG100 [3] = test: EtBr efflux by real-time fluorometry; settings: for EtBr fluorescence (Channel Cycling A.530/585hp): 80 µM
# Description: Control tubes with only cells and cells with and without 0.4% glucose were included. The fluorescence was measured in a Rotor-Gene 3000 and the data was acquired every 30 s for 30 min at 37 °C. The efflux activity was quantified by comparing the fluorescence data obtained under conditions that promote efflux (presence of glucose and absence of efflux inhibitor) with the data from the control in which the bacteria are under conditions of no efflux (presence of an inhibitor and no energy source).
# [4] = 80 uM, raw well reading, listed as PAN
smiles,measurement,setting,value
NC(N)=NCCC[C@H](NC(=O)[C@@H](N)Cc1ccccc1)C(=O)Nc1ccc2ccccc2c1 [PAβN] (H-Phe-Arg-βNA),"BacLight Live/Dead fluorescence 485/20,528/20",E. coli AG100 [1]; [4],168 and 192
same,"BacLight Live/Dead fluorescence 485/20,590/35",E. coli AG100 [1]; [4],43 and 57
same,membrane permeability increase / membrane permeation,"E. coli AG100 [1]; AG100, 80 µM",14%
same,membrane depolarization,E. coli AG100 [2],14%
same,inhibition of EtBr efflux,"E. coli AG100 [3]; AG100, AG100A and AG100tet (Fig. 2), 80 μM (20 μM for AG100A), glucose, 37 °C",to a lesser extent
same,EtBr fluorescence (Channel Cycling A.530/585hp),"E. coli AG100 [3]; cycle 1, + glucose",2.175
same,EtBr fluorescence (Channel Cycling A.530/585hp),"E. coli AG100 [3]; cycle 1, without glucose",1.796
same,EtBr fluorescence (Channel Cycling A.530/585hp),"E. coli AG100 [3]; cycle 2, + glucose",1.889
same,EtBr fluorescence (Channel Cycling A.530/585hp),"E. coli AG100 [3]; cycle 2, without glucose",1.72
same,EtBr fluorescence (Channel Cycling A.530/585hp),"E. coli AG100 [3]; cycle 3, + glucose",1.756
same,EtBr fluorescence (Channel Cycling A.530/585hp),"E. coli AG100 [3]; cycle 3, without glucose",1.635
same,EtBr fluorescence (Channel Cycling A.530/585hp),"E. coli AG100 [3]; cycle 4, without glucose",1.556
same,EtBr fluorescence (Channel Cycling A.530/585hp),"E. coli AG100 [3]; cycle 5, without glucose",1.502
same,EtBr fluorescence (Channel Cycling A.530/585hp),"E. coli AG100 [3]; cycle 6, without glucose",1.4519
same,EtBr fluorescence (Channel Cycling A.530/585hp),"E. coli AG100 [3]; cycle 7, without glucose",1.472
same,EtBr fluorescence (Channel Cycling A.530/585hp),"E. coli AG100 [3]; cycle 8, without glucose",1.378
same,EtBr fluorescence (Channel Cycling A.530/585hp),"E. coli AG100 [3]; cycle 9, + glucose",1.339
same,EtBr fluorescence (Channel Cycling A.530/585hp),"E. coli AG100 [3]; cycle 9, without glucose",1.359
same,EtBr fluorescence (Channel Cycling A.530/585hp),"E. coli AG100 [3]; cycle 10, + glucose",1.264
same,EtBr fluorescence (Channel Cycling A.530/585hp),"E. coli AG100 [3]; cycle 10, without glucose",1.368
same,EtBr fluorescence (Channel Cycling A.530/585hp),"E. coli AG100 [3]; cycle 11, + glucose",1.2447
same,EtBr fluorescence (Channel Cycling A.530/585hp),"E. coli AG100 [3]; cycle 11, without glucose",1.355
same,EtBr fluorescence (Channel Cycling A.530/585hp),"E. coli AG100 [3]; cycle 12, + glucose",1.251
same,EtBr fluorescence (Channel Cycling A.530/585hp),"E. coli AG100 [3]; cycle 12, without glucose",1.312
same,EtBr fluorescence (Channel Cycling A.530/585hp),"E. coli AG100 [3]; cycle 13, + glucose",1.259
same,EtBr fluorescence (Channel Cycling A.530/585hp),"E. coli AG100 [3]; cycle 13, without glucose",1.3469
same,EtBr fluorescence (Channel Cycling A.530/585hp),"E. coli AG100 [3]; cycle 14, + glucose",1.222
same,EtBr fluorescence (Channel Cycling A.530/585hp),"E. coli AG100 [3]; cycle 14, without glucose",1.257
same,EtBr fluorescence (Channel Cycling A.530/585hp),"E. coli AG100 [3]; cycle 15, + glucose",1.22
same,EtBr fluorescence (Channel Cycling A.530/585hp),"E. coli AG100 [3]; cycle 15, without glucose",1.235
same,EtBr fluorescence (Channel Cycling A.530/585hp),"E. coli AG100 [3]; cycle 16, + glucose",1.167
same,EtBr fluorescence (Channel Cycling A.530/585hp),"E. coli AG100 [3]; cycle 16, without glucose",1.232
same,EtBr fluorescence (Channel Cycling A.530/585hp),"E. coli AG100 [3]; cycle 17, + glucose",1.194
same,EtBr fluorescence (Channel Cycling A.530/585hp),"E. coli AG100 [3]; cycle 17, without glucose",1.242
same,EtBr fluorescence (Channel Cycling A.530/585hp),"E. coli AG100 [3]; cycle 18, + glucose",1.167
same,EtBr fluorescence (Channel Cycling A.530/585hp),"E. coli AG100 [3]; cycle 18, without glucose",1.283
same,EtBr fluorescence (Channel Cycling A.530/585hp),"E. coli AG100 [3]; cycle 19, + glucose",1.179
same,EtBr fluorescence (Channel Cycling A.530/585hp),"E. coli AG100 [3]; cycle 19, without glucose",1.241
same,EtBr fluorescence (Channel Cycling A.530/585hp),"E. coli AG100 [3]; cycle 20, + glucose",1.201
same,EtBr fluorescence (Channel Cycling A.530/585hp),"E. coli AG100 [3]; cycle 20, without glucose",1.199
same,EtBr fluorescence (Channel Cycling A.530/585hp),"E. coli AG100 [3]; cycle 21, + glucose",1.201
same,EtBr fluorescence (Channel Cycling A.530/585hp),"E. coli AG100 [3]; cycle 21, without glucose",1.185
same,EtBr fluorescence (Channel Cycling A.530/585hp),"E. coli AG100 [3]; cycle 22, + glucose",1.145
same,EtBr fluorescence (Channel Cycling A.530/585hp),"E. coli AG100 [3]; cycle 22, without glucose",1.19
same,EtBr fluorescence (Channel Cycling A.530/585hp),"E. coli AG100 [3]; cycle 23, + glucose",1.181
same,EtBr fluorescence (Channel Cycling A.530/585hp),"E. coli AG100 [3]; cycle 23, without glucose",1.1696
same,EtBr fluorescence (Channel Cycling A.530/585hp),"E. coli AG100 [3]; cycle 24, + glucose",1.1726
same,EtBr fluorescence (Channel Cycling A.530/585hp),"E. coli AG100 [3]; cycle 24, without glucose",1.092
same,EtBr fluorescence (Channel Cycling A.530/585hp),"E. coli AG100 [3]; cycle 25, + glucose",1.158
same,EtBr fluorescence (Channel Cycling A.530/585hp),"E. coli AG100 [3]; cycle 25, without glucose",1.1723
same,EtBr fluorescence (Channel Cycling A.530/585hp),"E. coli AG100 [3]; cycle 26, + glucose",1.17
same,EtBr fluorescence (Channel Cycling A.530/585hp),"E. coli AG100 [3]; cycle 26, without glucose",1.164
same,EtBr fluorescence (Channel Cycling A.530/585hp),"E. coli AG100 [3]; cycle 27, + glucose",1.169
same,EtBr fluorescence (Channel Cycling A.530/585hp),"E. coli AG100 [3]; cycle 27, without glucose",1.126
same,EtBr fluorescence (Channel Cycling A.530/585hp),"E. coli AG100 [3]; cycle 28, + glucose",1.177
same,EtBr fluorescence (Channel Cycling A.530/585hp),"E. coli AG100 [3]; cycle 28, without glucose",1.147
same,EtBr fluorescence (Channel Cycling A.530/585hp),"E. coli AG100 [3]; cycle 29, + glucose",1.1781
same,EtBr fluorescence (Channel Cycling A.530/585hp),"E. coli AG100 [3]; cycle 29, without glucose",1.123
same,EtBr fluorescence (Channel Cycling A.530/585hp),"E. coli AG100 [3]; cycle 30, + glucose",1.125
same,EtBr fluorescence (Channel Cycling A.530/585hp),"E. coli AG100 [3]; cycle 30, without glucose",1.105
same,EtBr fluorescence (Channel Cycling A.530/585hp),"E. coli AG100 [3]; cycle 31, + glucose",1.166
same,EtBr fluorescence (Channel Cycling A.530/585hp),"E. coli AG100 [3]; cycle 31, without glucose",1.145
same,EtBr fluorescence (Channel Cycling A.530/585hp),"E. coli AG100 [3]; cycle 32, + glucose",1.148
same,EtBr fluorescence (Channel Cycling A.530/585hp),"E. coli AG100 [3]; cycle 32, without glucose",1.083
same,EtBr fluorescence (Channel Cycling A.530/585hp),"E. coli AG100 [3]; cycle 33, + glucose",1.1593
same,EtBr fluorescence (Channel Cycling A.530/585hp),"E. coli AG100 [3]; cycle 33, without glucose",1.053
same,EtBr fluorescence (Channel Cycling A.530/585hp),"E. coli AG100 [3]; cycle 34, + glucose",1.173
same,EtBr fluorescence (Channel Cycling A.530/585hp),"E. coli AG100 [3]; cycle 34, without glucose",1.055
same,EtBr fluorescence (Channel Cycling A.530/585hp),"E. coli AG100 [3]; cycle 35, + glucose",1.1603
same,EtBr fluorescence (Channel Cycling A.530/585hp),"E. coli AG100 [3]; cycle 35, without glucose",1.086
same,EtBr fluorescence (Channel Cycling A.530/585hp),"E. coli AG100 [3]; cycle 36, + glucose",1.157
same,EtBr fluorescence (Channel Cycling A.530/585hp),"E. coli AG100 [3]; cycle 36, without glucose",1.095
same,EtBr fluorescence (Channel Cycling A.530/585hp),"E. coli AG100 [3]; cycle 37, + glucose",1.1393
same,EtBr fluorescence (Channel Cycling A.530/585hp),"E. coli AG100 [3]; cycle 37, without glucose",1.081
same,EtBr fluorescence (Channel Cycling A.530/585hp),"E. coli AG100 [3]; cycle 38, + glucose",1.174
same,EtBr fluorescence (Channel Cycling A.530/585hp),"E. coli AG100 [3]; cycle 38, without glucose",1.066
same,EtBr fluorescence (Channel Cycling A.530/585hp),"E. coli AG100 [3]; cycle 39, + glucose",1.096
same,EtBr fluorescence (Channel Cycling A.530/585hp),"E. coli AG100 [3]; cycle 39, without glucose",1.058
same,EtBr fluorescence (Channel Cycling A.530/585hp),"E. coli AG100 [3]; cycle 40, + glucose",1.115
same,EtBr fluorescence (Channel Cycling A.530/585hp),"E. coli AG100 [3]; cycle 40, without glucose",1.043
same,EtBr fluorescence (Channel Cycling A.530/585hp),"E. coli AG100 [3]; cycle 41, + glucose",1.134
same,EtBr fluorescence (Channel Cycling A.530/585hp),"E. coli AG100 [3]; cycle 41, without glucose",1.067
same,EtBr fluorescence (Channel Cycling A.530/585hp),"E. coli AG100 [3]; cycle 42, + glucose",1.162
same,EtBr fluorescence (Channel Cycling A.530/585hp),"E. coli AG100 [3]; cycle 42, without glucose",1.058
